Assay results as given in patent US20050053916A1, “Diagnostic for long term response of HBV carrier to 3TC therapy” (priority 2002, published 2005).
Values joined by “and” are separate entries in the source; they are usually repeats but may differ in a detail not shown here. Equal entries are not always repeated. “Also recorded” adds a separate entry of the source.

How the values were obtained:
[1] = system: serum alanine transaminase (ALT); assay: Biochemical response (serum ALT) in chronic hepatitis B patients on long-term lamivudine therapy; format: in vivo, human; conditions: for No. of patients with ALT elevation / No. of patients with Sustained ALT Normalization: outcome summary
Protocol: All patients had detectable HBV DNA by polymerase chain reaction (PCR) assay (HBV Monitor, Roche Diagnostics, Inc.) and by solution hybridization assay (Abbott Diagnostics, Inc.) at baseline and for at least 6 months before therapy. […] Patients were negative for hepatitis C, hepatitis D, or human immunodeficiency virus antibodies, and there were no evidences of autoimmune hepatitis. None of the patients were treated with interferon or other antiviral agents, such as famciclovir or adefovir dipovoxil, during the study or within six months before the beginning of lamivudine treatment.
(§1) All patients were followed with monthly clinical examination and routine laboratory tests.
Blood test—An aliquot of serum was collected at each visit and stored at −70° C. until used for analysis.
HBV serologic markers were tested by commercial enzyme immunoassay kits: HBeAg and anti-HBeAg (DiaSorin, Italy), and HBsAg (Abbott Laboratories, Inc.). Serum samples were also evaluated for routine biochemical markers of liver disease, including ALT.
(§2) Definitions—“Responder” patients were classified as attaining both a biochemical and virological response: normalization of ALT values and the absence of serum HBV DNA by Monitor™ PCR in two consecutive determinations during treatment. “Breakthrough” was defined as those patients in who HBV DNA reappeared by Monitor™ PCR assay after an initial antiviral response (serum HBV DNA negative by Monitor™ PCR), eventually associated with an increase of ALT levels greater than 1.5× the upper limit of normal (35 IU/L).

HBV [2] = assay: Virological response (serum HBV DNA, HBV Monitor PCR) in chronic hepatitis B patients on long-term lamivudine therapy; format: in vivo, human; conditions: for virologic breakthrough observed, number of patients: of 12 breakthrough patients
Text: All patients had detectable HBV DNA by polymerase chain reaction (PCR) assay (HBV Monitor, Roche Diagnostics, Inc.) and by solution hybridization assay (Abbott Diagnostics, Inc.) at baseline and for at least 6 months before therapy. […] Patients were negative for hepatitis C, hepatitis D, or human immunodeficiency virus antibodies, and there were no evidences of autoimmune hepatitis.
as §1
Serum HBV DNA for the evaluation of response to treatment was analyzed by the HBV Monitor™ assay (Roche Diagnostic, Inc.) with a detection limit of 100 copies/ml, and a solution hybridization assay (Abbott Laboratories, Inc.) with a detection limit of 10 pg/ml.
as §2

HBV [3] = conditions: after 16 weeks or more of treatment; HBeAg positive candidates; cited from earlier work
[4] = individual breakthrough (BK) patients, row order Pt #4, 5, 8, 10, 12, 13, 16, 17, 19, 20, 24, 26, 27-53 months of treatment
[5] = individual non-responder (NR) patients, row order Pt #3, 6, 9, 11, 15, 21, 22, 33-47 months of treatment
[6] = after a minimum of 27 months of therapy, 26 patients

With Nc1ccn([C@@H]2CS[C@H](CO)O2)c(=O)n1 [lamivudine] the “patients in whom serum ALT normalized” value ([1]; by week 24 of treatment, 13 of 26 patients, lamivudine orally 100 mg daily) was 50%, the “ALT (IU/L), treatment (last follow up)” value [1, 4] was 9 IU/L (2×) and 5 IU/L (3×) and 21 IU/L and 75 IU/L and 81 IU/L and 51 IU/L and 80 IU/L and 2 IU/L and 4 IU/L and the “ALT (IU/L), treatment (last follow up)” value [1, 5] was 68 IU/L and 37 IU/L and 4 IU/L (2×) and 66 IU/L and 74 IU/L and 85 IU/L. The “ALT (IU/L), treatment (last follow up)” value ([1]; individual responder (R) patients, row order Pt #1, 2, 7, 14, 18, 23, 25, 27-50 months of treatment, upper limit of normal 35 IU/L) was 30 IU/L and 24 IU/L (2×) and 20 IU/L and 18 IU/L and 21 IU/L and 16 IU/L, the “No. of patients with ALT elevation” value ([1]; Breakthrough group (12 pts)) was 5 and the “No. of patients with Sustained ALT Normalization” value ([1]; Breakthrough group (12 pts)) was 7. The “No. of patients with ALT elevation” value ([1]; Non-responder group (7 pts)) was 7, the “No. of patients with Sustained ALT Normalization” value ([1]; Non-responder group (7 pts)) was 0 and the “No. of patients with ALT elevation” value ([1]; Responder group (7 pts)) was 7. The “No. of patients with Sustained ALT Normalization” value ([1]; Responder group (7 pts)) was 0, the “virologic breakthrough observed, number of patients” value (HBV [2]; after 12 months of therapy) was 6 patients and the “patients who were breakthroughs” value (HBV [2]; [6]) was 46%. For the same molecule, the “patients who were non-responders” value (HBV [2]; [6]) was 27%, the “patients who were responders” value (HBV [2]; [6]) was 27% and the “virologic breakthrough observed, number of patients” value (HBV [2]; between 12 and 18 months of therapy) was 5 patients. For the same molecule, the “patients in whom HBV DNA became undetectable” value (HBV [2]; by week 24 of treatment, 19 of 26 patients, lamivudine orally 100 mg daily) was 73%, the “HBV DNA (log10/ml), treatment (last follow up)” value (“HBV DNA (log10/ml), treatment” below) (HBV [2]; [4]) was 5.00 log10/ml and 5.31 log10/ml and 5.17 log10/ml and 6.20 log10/ml and 5.67 log10/ml and 6.62 log10/ml and 5.88 log10/ml and 4.54 log10/ml and 6.08 log10/ml and 7.02 log10/ml and 6.18 log10/ml and the “HBV DNA (log10/ml), treatment” value (HBV [2]; [5]) was 4.25 log10/ml and 4.55 log10/ml and 6.11 log10/ml (2×) and 7.28 log10/ml and 5.19 log10/ml and 6.19 log10/ml. For the same molecule, the “HBV DNA (log10/ml), treatment” value (HBV [2]; individual responder (R) patients, row order Pt #1, 2, 7, 14, 18, 23, 25, 27-50 months of treatment) was “ud* (undetectable, limit of detection 1000 copies/ml); also recorded: ud (undetectable, limit of detection 1000 copies/ml)”, the “No. of Patients (%), Breakthrough” value (HBV [2]; outcome summary (26 pts)) was 12 (46%) and the “No. of Patients (%), Non-responder” value (HBV [2]; outcome summary (26 pts)) was 7 (27%). The “No. of Patients (%), Responder” value (HBV [2]; outcome summary (26 pts)) was 7 (27%).

For interferon-alpha, the “individuals who lose serum HBeAg” value (HBV [3]) is listed as “about 40%”.
